Values joined by “and” are separate entries in the source; they are usually repeats but may differ in a detail not shown here. Equal values may be shown once. Each block holds one compound with its values, some of them ahead of it.
What was measured:
HCT116 cells = test: Bru-seq nascent RNA profiling; details: C1-14 (10 μM) 4 h vs DMSO
Experimental: The data set was analysed using the DAVID, ingenuity pathway analysis (IPA) and GSEA for pathway identification. […] Data sets with nearly 250 genes containing the gene identifiers and fold changes were uploaded to the IPA web-based application and each gene identifier was mapped to its corresponding gene object in the ingenuity pathways knowledge base. Finally, the biological function genes were ordered by P value of significance and maximum number of genes in the pathway. Bru-Seq data were further analysed using GSEA for exploring the mechanism of cellular action of GSTO1 and its inhibitor. A pre-ranked gene list of the Bru-Seq data set was submitted to GSEA, and enrichment analysis was done based on the Kolmogorov–Smirnov statistic[59][60]. […] For each gene set, the ES (enrichment score) was normalized to account for differences in gene set size and the false discovery rate relative to the normalized enrichment score values was calculated.

GSTO1 [1] = molecular target: T1, GSTO1 (Homo sapiens, UniProt P78417); test: GSTO1 substrate assay (reduction of 4-NPG); details: for IC50: read-out: GSTO substrate assay IC50, cluster screening tables
T1 sequence (P78417 1-241): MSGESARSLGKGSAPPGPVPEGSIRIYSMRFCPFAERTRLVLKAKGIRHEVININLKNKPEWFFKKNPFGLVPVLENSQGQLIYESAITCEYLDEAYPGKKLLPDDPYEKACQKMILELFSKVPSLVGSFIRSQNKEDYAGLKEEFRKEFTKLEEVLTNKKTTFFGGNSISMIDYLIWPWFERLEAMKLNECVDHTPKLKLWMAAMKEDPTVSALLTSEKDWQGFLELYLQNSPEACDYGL
Experimental: For activity screening, we adapted a GSTO1 substrate assay that relies on the quantification of the reduction of S-(4-nitrophenacyl)glutathione (4-NPG), a GSTO1-specific substrate[17], using recombinant human GSTO1 in a high-throughput screening format.
Enzyme activity was measured by monitoring the reduction of 4-NPG to 4-nitroacetophenone by GSTO1.

GSTO1 [2] = molecular target: T1, GSTO1; test: In-gel fluorescence competitive CMFDA binding assay, recombinant GSTO1; details: inhibition of CMFDA binding
Text: (§1) Primary screening of GSTO inhibitors was based on competitive inhibition of CMFDA binding to endogenous GSTO. Briefly, HCT116^p53+/+ cells (4 × 10^4 per well) were coated in a 12-well plate. […] Cells were then washed with PBS and lysed using Cell Lytic M buffer (Sigma). […] Gels were immediately scanned on a Typhoon variable mode imager (Amersham Bioscience). Quantification of fluorescent band intensity was done using Image Quant 5.2 software.

endogenous GSTO1 = molecular target: T2, endogenous GSTO1 (Homo sapiens, UniProt P78417); test: In-gel fluorescence competitive CMFDA binding assay, endogenous GSTO1 in HCT116; details: 10 µM; inhibition of CMFDA binding, HCT116
T2 sequence (P78417 1-241): T1 sequence (P78417 1-241)
Text: as §1

HCT116p53+/+ cell = test: MTT cell proliferation at single concentration; assay type: cell-based, human
Outline: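 Cancer cells attached overnight, exposed to GSTO1 inhibitors for 72 h, then MTT added for 3 h at 37 °C; formazan dissolved in DMSO, absorbance read at 570 nm. At least three independent dose–response experiments, triplicate per concentration.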

GSTO substrate assay % Inhibition at 10 µM (GSTO1 [1]): 16.5%
GSTO binding assay (% Inhibition at 10 µM) Recombinant (GSTO1 [2]): -15.6%
GSTO binding assay (% Inhibition at 10 µM) Endogenous (endogenous GSTO1): 6.7%
Compound: CN(C)c1ccc(Cl)cc1NC(=O)CCl [C1-14]
ATP5L2 fold change (HCT116 cells): 0.70
ATP6AP1L fold change (HCT116 cells): 0.71
AURKAPS1 fold change (HCT116 cells): 0.68
BACE1-AS fold change (HCT116 cells): 0.60
HFM1 fold change (HCT116 cells): 8.78
HIST1H1E fold change (HCT116 cells): 8.67
HIST1H2AC fold change (HCT116 cells): 5.52
HIST1H2AG fold change (HCT116 cells): 10.36
HIST1H2AH fold change (HCT116 cells): 6.00
HIST1H2AI fold change (HCT116 cells): 8.25
HIST1H2AJ fold change (HCT116 cells): 11.27
HIST1H2BJ fold change (HCT116 cells): 5.45
HIST1H2BL fold change (HCT116 cells): 15.96
HIST1H2BN fold change (HCT116 cells): 5.80
HIST1H3H fold change (HCT116 cells): 6.41
HIST1H4C fold change (HCT116 cells): 5.72
HIST1H4D fold change (HCT116 cells): 7.81
HIST1H4K fold change (HCT116 cells): 18.57
HIST2H2AB fold change (HCT116 cells): 5.21
HIST2H3D fold change (HCT116 cells): 7.39
HIST3H2BB fold change (HCT116 cells): 6.97
HIST4H4 fold change (HCT116 cells): 7.84
HSP90AB4P fold change (HCT116 cells): 0.72
HUS1B fold change (HCT116 cells): 0.46
IER3 fold change (HCT116 cells): 0.72
LINC00115 fold change (HCT116 cells): 0.64
LINC00311 fold change (HCT116 cells): 0.62
LINC00471 fold change (HCT116 cells): 0.67
P2RX5-TAX1BP3 fold change (HCT116 cells): 0.65
REP15 fold change (HCT116 cells): 0.70
RIBC2 fold change (HCT116 cells): 0.70
RPA4 fold change (HCT116 cells): 0.69
RPPH1 fold change (HCT116 cells): 16.74
SCARNA10 fold change (HCT116 cells): 5.37
SLC7A5P1 fold change (HCT116 cells): 0.38
TIGD6 fold change (HCT116 cells): 0.71
TNFAIP3 fold change (HCT116 cells): 0.71
TYRO3P fold change (HCT116 cells): 0.65
ZNF572 fold change (HCT116 cells): 0.70
ZNF670-ZNF695 fold change (HCT116 cells): 0.58

GSTO substrate assay % Inhibition at 10 µM (GSTO1 [1]): 29.3%
GSTO binding assay (% Inhibition at 10 µM) Recombinant (GSTO1 [2]): 55.2%
GSTO binding assay (% Inhibition at 10 µM) Endogenous (endogenous GSTO1): 49.5%
Compound: COc1ccc2cc(CN(C)C(=O)CCl)ccc2c1 [C4-6]
% Inhibition of HCT116p53+/+ cell proliferation at 10 µM (HCT116p53+/+ cell): 44.1% and 68.5%

GSTO substrate assay % Inhibition at 10 µM (GSTO1 [1]): 5.0%
GSTO binding assay (% Inhibition at 10 µM) Recombinant (GSTO1 [2]): -8.2%
GSTO binding assay (% Inhibition at 10 µM) Endogenous (endogenous GSTO1): 15.9%
Compound: C=CCN(C(=O)CCl)c1nc(-c2ccc(Cl)c(Cl)c2)cs1 [C4-5]
% Inhibition of HCT116p53+/+ cell proliferation at 10 µM (HCT116p53+/+ cell): 9.9% and 16.9%

GSTO substrate assay % Inhibition at 10 µM (GSTO1 [1]): 98.2%
GSTO binding assay (% Inhibition at 10 µM) Recombinant (GSTO1 [2]): 65.8%
GSTO binding assay (% Inhibition at 10 µM) Endogenous (endogenous GSTO1): 34.0%
Compound: O=C(CCl)N(Cc1ccccc1)Cc1ccco1 [C4-15]
% Inhibition of HCT116p53+/+ cell proliferation at 10 µM (HCT116p53+/+ cell): -6.8% and -5.5%

GSTO substrate assay % Inhibition at 10 µM (GSTO1 [1]): 81.3%
GSTO binding assay (% Inhibition at 10 µM) Recombinant (GSTO1 [2]): 58.4%
GSTO binding assay (% Inhibition at 10 µM) Endogenous (endogenous GSTO1): 27.6%
Compound: O=C(CCl)NNC(=O)c1ccc(Br)cc1 [C3-21]
% Inhibition of HCT116p53+/+ cell proliferation at 10 µM (HCT116p53+/+ cell): 9.9%

GSTO substrate assay % Inhibition at 10 µM (GSTO1 [1]): 61.9%
GSTO binding assay (% Inhibition at 10 µM) Recombinant (GSTO1 [2]): 57.6%
GSTO binding assay (% Inhibition at 10 µM) Endogenous (endogenous GSTO1): 39.3%
Compound: O=C(CCl)NNc1c(Cl)cc(Cl)cc1Cl [C3-17]
% Inhibition of HCT116p53+/+ cell proliferation at 10 µM (HCT116p53+/+ cell): 7.4%

GSTO substrate assay % Inhibition at 10 µM (GSTO1 [1]): 59.8%
GSTO binding assay (% Inhibition at 10 µM) Recombinant (GSTO1 [2]): 9.4%
GSTO binding assay (% Inhibition at 10 µM) Endogenous (endogenous GSTO1): 61.5%
Compound: O=C(CCl)N1CCN(c2ccccc2F)CC1 [C5-3]
% Inhibition of HCT116p53+/+ cell proliferation at 10 µM (HCT116p53+/+ cell): 28.2%

Compound: O=C(CCl)N(NC(=O)P(=O)(N1CCOCC1)N1CCOCC1)c1ccc(Br)cc1 [C4-20]
% Inhibition of HCT116p53+/+ cell proliferation at 10 µM (HCT116p53+/+ cell): 10.4% and 6.3%
GSTO substrate assay % Inhibition at 10 µM (GSTO1 [1]): -7.3%
GSTO binding assay (% Inhibition at 10 µM) Recombinant (GSTO1 [2]): 9.3%
GSTO binding assay (% Inhibition at 10 µM) Endogenous (endogenous GSTO1): 27.6%

GSTO substrate assay % Inhibition at 10 µM (GSTO1 [1]): 12.5%
GSTO binding assay (% Inhibition at 10 µM) Recombinant (GSTO1 [2]): 12.3%
GSTO binding assay (% Inhibition at 10 µM) Endogenous (endogenous GSTO1): 12.6%
Compound: CC(NC(=O)CCl)c1ccc2c(c1)OCO2 (stereo not drawn) [C3-7]
% Inhibition of HCT116p53+/+ cell proliferation at 10 µM (HCT116p53+/+ cell): 73.6%

GSTO substrate assay % Inhibition at 10 µM (GSTO1 [1]): 103.4%
IC50 (GSTO1 [1]): 2360 nM
GSTO binding assay (% Inhibition at 10 µM) Recombinant (GSTO1 [2]): 60.0%
GSTO binding assay (% Inhibition at 10 µM) Endogenous (endogenous GSTO1): 51.8%
Compound: CCN(Cc1ccc2c(c1)OCO2)C(=O)CCl [C4-11]
% Inhibition of HCT116p53+/+ cell proliferation at 10 µM (HCT116p53+/+ cell): 2.8%

GSTO substrate assay % Inhibition at 10 µM (GSTO1 [1]): 77.7%
IC50 (GSTO1 [1]): 1160 nM
GSTO binding assay (% Inhibition at 10 µM) Recombinant (GSTO1 [2]): 55.2%
GSTO binding assay (% Inhibition at 10 µM) Endogenous (endogenous GSTO1): 58.6%
Compound: O=C(CCl)Nc1cc2c(cc1Cl)OCCCO2 [C1-11]
% Inhibition of HCT116p53+/+ cell proliferation at 10 µM (HCT116p53+/+ cell): 63.4% and 65.6%

GSTO substrate assay % Inhibition at 10 µM (GSTO1 [1]): 77.2%
GSTO binding assay (% Inhibition at 10 µM) Recombinant (GSTO1 [2]): 51.5%
GSTO binding assay (% Inhibition at 10 µM) Endogenous (endogenous GSTO1): 24.8%
Compound: CCOC(=O)c1c(NC(=O)CCl)sc2c1CCN(CC)C2 [C2-17]
% Inhibition of HCT116p53+/+ cell proliferation at 10 µM (HCT116p53+/+ cell): 85.2% and 94.5%

GSTO substrate assay % Inhibition at 10 µM (GSTO1 [1]): 61.5%
GSTO binding assay (% Inhibition at 10 µM) Recombinant (GSTO1 [2]): 37.8%
GSTO binding assay (% Inhibition at 10 µM) Endogenous (endogenous GSTO1): 47.0%
Compound: Cc1c(C#N)c(NC(=O)CCl)n(-c2ccc(F)cc2)c1C [C2-3]
% Inhibition of HCT116p53+/+ cell proliferation at 10 µM (HCT116p53+/+ cell): 49%
